Results from ChEMBL document CHEMBL3808392, “Design, synthesis and biological evaluation of 5-fluorouracil-derived benzimidazoles as novel type of potential antimicrobial agents” (2016).
In brackets after ≈: the same amount, converted by molar mass. Activity calls are given as the source filed them. No cut-off for these calls is given here.

Assays:
Saccharomyces cerevisiae [1] = experiment: Potency index, ratio of fluconazole MIC to compound MIC for antimicrobial activity against Saccharomyces cerevisiae; format: functional
[2] = Antimicrobial activity against Bacillus proteus ATCC 13315 after 24 hrs by microbroth dilution method; format: functional; conditions: ATCC 13315, 24 h
Candida albicans = experiment: Antimicrobial activity against Candida albicans ATCC 10231 after 24 hrs by microbroth dilution method; format: functional; conditions: ATCC 10231, 24 h
Micrococcus luteus = experiment: Antimicrobial activity against Micrococcus luteus ATCC 4698 after 24 hrs by microbroth dilution method; format: functional; conditions: ATCC 4698, 24 h
Saccharomyces cerevisiae [3] = experiment: Antimicrobial activity against Saccharomyces cerevisiae after 24 hrs by microbroth dilution method; format: functional
Staphylococcus aureus [4] = experiment: Potency index, ratio of norfloxacin MIC to compound MIC for antimicrobial activity against methicillin-resistant Staphylococcus aureus N315; format: functional
Staphylococcus aureus [5] = experiment: Potency index, ratio of chloromycin MIC to compound MIC for antimicrobial activity against methicillin-resistant Staphylococcus aureus N315; format: functional
Escherichia coli [6] = experiment: Antimicrobial activity against Escherichia coli DH52 after 24 hrs by microbroth dilution method; format: functional; conditions: DH52, 24 h
Staphylococcus aureus [7] = experiment: Antimicrobial activity against Staphylococcus aureus ATCC 25923 after 24 hrs by microbroth dilution method; format: functional; conditions: ATCC 25923, 24 h
Calf thymus DNA [8] = experiment: Binding affinity to calf thymus DNA assessed as compound-DNA complex formation by UV-visible spectroscopy; format: nucleic-acid assay; conditions: Bos taurus
Staphylococcus aureus [9] = experiment: Antimicrobial activity against methicillin-resistant Staphylococcus aureus N315 after 24 hrs by microbroth dilution method; format: functional; conditions: N315, 24 h
Calf thymus DNA [10] = experiment: Binding affinity to calf thymus DNA assessed as compound-DNA complex formation at 4.87x10'-5 mol/l by fluorescence analysis; format: nucleic-acid assay; conditions: Bos taurus
Calf thymus DNA [11] = experiment: Competitive binding affinity to calf thymus DNA assessed as compound-DNA complex formation at 0.74 to 2.18x10'-5 mol/l by UV-visible spectroscopy in presence of neutral red dye; format: nucleic-acid assay; conditions: Bos taurus
Bacillus spizizenii = experiment: Antimicrobial activity against Bacillus subtilis ATCC 6633 after 24 hrs by microbroth dilution method; format: functional; conditions: ATCC 6633, 24 h
Aspergillus flavus = experiment: Antimicrobial activity against Aspergillus flavus ATCC 204304 after 24 hrs by microbroth dilution method; format: functional; conditions: ATCC 204304, 24 h
Salmonella typhi = experiment: Antimicrobial activity against Bacillus typhi after 24 hrs by microbroth dilution method; format: functional, Salmonella enterica subsp. enterica serovar Typhi; conditions: Salmonella enterica
Candida = experiment: Antimicrobial activity against Candida mycoderma ATCC 9888 after 24 hrs by microbroth dilution method; format: functional; conditions: ATCC 9888, 24 h
Calf thymus DNA [12] = experiment: Binding affinity to calf thymus DNA assessed as compound-DNA complex formation by fluorescence analysis in presence of quencher potassium iodide; format: nucleic-acid assay; conditions: Bos taurus
Escherichia coli [13] = experiment: Antimicrobial activity against Escherichia coli JM109 after 24 hrs by microbroth dilution method; format: functional; conditions: JM109, 24 h
Bacillus = experiment: Potency index, ratio of norfloxacin MIC to compound MIC for antimicrobial activity against Bacillus proteus ATCC 13315; format: functional
Escherichia coli [14] = experiment: Potency index, ratio of chloromycin MIC to compound MIC for antimicrobial activity against Escherichia coli DH52; format: functional

Row | SMILES | MIC [2] [µg/mL] | MIC (Candida albicans) [µg/mL] | MIC (Micrococcus luteus) [µg/mL] | MIC (Saccharomyces cerevisiae [3]) [µg/mL] | MIC (Escherichia coli [6]) [µg/mL] | MIC (Staphylococcus aureus [7]) [µg/mL] | MIC (Staphylococcus aureus [9]) [µg/mL] | MIC (Bacillus spizizenii) [µg/mL] | MIC (Aspergillus flavus) [µg/mL] | MIC (Salmonella typhi) [µg/mL] | MIC (Candida) [µg/mL] | MIC (Escherichia coli [13]) [µg/mL] | other results
1 | O=c1c(F)cn(Cc2nc3ccccc3n2Cc2cccc(F)c2)c(=O)n1Cc1cccc(F)c1 | 4 (≈ 8.4 µM) | 32 (≈ 67.2 µM) | 64 (≈ 134 µM) | 1 (≈ 2.1 µM) | 2 (≈ 4.2 µM) | 4 (≈ 8.4 µM) | 2 (≈ 4.2 µM) | 16 (≈ 33.6 µM) | 8 (≈ 16.8 µM) | 8 (≈ 16.8 µM) | 32 (≈ 67.2 µM) | 8 (≈ 16.8 µM) | Ratio (Saccharomyces cerevisiae [1]): 16; Ratio (Staphylococcus aureus [4]): 4; Ratio (Staphylococcus aureus [5]): 8; K (Calf thymus DNA [8]): 3.89 ×10⁴ L/mol; Activity (Calf thymus DNA [10]): Active; Activity (Calf thymus DNA [11]): Active; KSV (Calf thymus DNA [12]): 6.45 L/mol
2 | O=c1[nH]c(=O)n(Cc2nc3ccccc3n2Cc2cccc(F)c2)cc1F | 2 (≈ 5.43 µM) | 16 (≈ 43.4 µM) | 16 (≈ 43.4 µM) | 4 (≈ 10.9 µM) | 2 (≈ 5.43 µM) | 4 (≈ 10.9 µM) | 64 (≈ 174 µM) | 8 (≈ 21.7 µM) | 32 (≈ 86.9 µM) | 128 (≈ 348 µM) | 16 (≈ 43.4 µM) | 64 (≈ 174 µM) | Ratio (Bacillus): 4
3 | CCn1c(Cn2cc(F)c(=O)[nH]c2=O)nc2ccccc21 | 32 (≈ 111 µM) | 2 (≈ 6.94 µM) | 16 (≈ 55.5 µM) | 4 (≈ 13.9 µM) | 8 (≈ 27.8 µM) | 16 (≈ 55.5 µM) | 16 (≈ 55.5 µM) | 64 (≈ 222 µM) | 32 (≈ 111 µM) | 32 (≈ 111 µM) | 16 (≈ 55.5 µM) | 64 (≈ 222 µM) | Ratio (Escherichia coli [14]): 4
4 | CCCCCn1c(=O)c(F)cn(Cc2nc3ccccc3n2CCCCC)c1=O | 8 (≈ 20 µM) | > 512 | 32 (≈ 79.9 µM) | 8 (≈ 20 µM) | 512 (≈ 1280 µM) | 16 (≈ 40 µM) | 16 (≈ 40 µM) | 512 (≈ 1280 µM) | > 512 | 512 (≈ 1280 µM) | 8 (≈ 20 µM) | 16 (≈ 40 µM) | –
